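Where inhibition never reached the appropriate level, the endpoint shown equals the highest concentration tested. Otherwise, values were interpolated linearly from a five-concentration, 48-hour dose response in 96-well plates. The concentration for 50% growth inhibition is given as GI50.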 Activity calls are given as the source filed them. No stated cut-off is given here; in the data, active = GI50 up to about 1.1 µM and inactive = higher.
Legend:
Experiment in all cases: inhibition of tumour cell growth, NCI panel, 48 h
COLO 205 = system: COLO 205
SF-268 = system: SF-268
MDA-MB-231 = system: MDA-MB-231
MCF7 = system: MCF7
HOP-62 = system: HOP-62
MOLT-4 = system: MOLT-4
SR = system: SR
SNB-19 = system: SNB-19
RXF 393 = system: RXF 393
U-251 = system: U-251
SK-MEL-5 = system: SK-MEL-5
OVCAR-8 = system: OVCAR-8
NCI/ADR-RES = system: NCI/ADR-RES
SF-539 = system: SF-539
LOX IMVI = system: LOX IMVI
UACC-62 = system: UACC-62
DU-145 = system: DU-145
RPMI-8226 = system: RPMI-8226
A498 = system: A498
PC-3 = system: PC-3
HCT-15 = system: HCT-15
IGROV-1 = system: IGROV-1
HL-60 = system: HL-60
K562 = system: K562
CAKI-1 = system: CAKI-1
Malme-3M = system: Malme-3M
BT-549 = system: BT-549
NCI-H522 = system: NCI-H522
MDA-MB-435 = system: MDA-MB-435
SW-620 = system: SW-620
SK-MEL-28 = system: SK-MEL-28
MDA-N = system: MDA-N
SN12C = system: SN12C
786-0 = system: 786-0
OVCAR-3 = system: OVCAR-3
A549 = system: A549
SK-OV-3 = system: SK-OV-3
HOP-92 = system: HOP-92
ACHN = system: ACHN
OVCAR-5 = system: OVCAR-5
Hs-578T = system: Hs-578T
NCI-H23 = system: NCI-H23
HCC 2998 = system: HCC 2998
EKVX = system: EKVX
HT-29 = system: HT-29
UACC-257 = system: UACC-257
M14 = system: M14
T47D = system: T47D
SF-295 = system: SF-295
SK-MEL-2 = system: SK-MEL-2
KM12 = system: KM12
HCT-116 = system: HCT-116
OVCAR-4 = system: OVCAR-4
SNB-75 = system: SNB-75
NCI-H460 = system: NCI-H460
NCI-H226 = system: NCI-H226
TK-10 = system: TK-10
CCRF-CEM = system: CCRF-CEM
UO-31 = system: UO-31

SMILES: CCOC1CN=C(Nc2cccc3ccccc23)S1 (configuration not stated)
- GI50 (COLO 205): > 10 µM (inactive)
- GI50 (SF-268): > 10 µM (inactive)
- GI50 (MDA-MB-231): > 10 µM (inactive)
- GI50 (MCF7): > 10 µM (inactive)
- GI50 (HOP-62): > 10 µM (inactive)
- GI50 (MOLT-4): > 10 µM (inactive)
- GI50 (SR): > 10 µM (inactive)
- GI50 (SNB-19): > 10 µM (inactive)
- GI50 (RXF 393): > 10 µM (inactive)
- GI50 (U-251): > 10 µM (inactive)
- GI50 (SK-MEL-5): > 10 µM (inactive)
- GI50 (OVCAR-8): > 10 µM (inactive)
- GI50 (NCI/ADR-RES): > 10 µM (inactive)
- GI50 (SF-539): > 10 µM (inactive)
- GI50 (LOX IMVI): > 10 µM (inactive)
- GI50 (UACC-62): > 10 µM (inactive)
- GI50 (DU-145): > 10 µM (inactive)
- GI50 (RPMI-8226): > 10 µM (inactive)
- GI50 (A498): > 10 µM (inactive)
- GI50 (PC-3): > 10 µM (inactive)
- GI50 (HCT-15): > 10 µM
- GI50 (IGROV-1): > 10 µM (inactive)
- GI50 (HL-60): > 10 µM (inactive)
- GI50 (K562): > 10 µM (inactive)
- GI50 (CAKI-1): > 10 µM (inactive)
- GI50 (Malme-3M): > 10 µM (inactive)
- GI50 (BT-549): > 10 µM (inactive)
- GI50 (NCI-H522): > 10 µM (inactive)
- GI50 (MDA-MB-435): > 10 µM (inactive)
- GI50 (SW-620): > 10 µM (inactive)
- GI50 (SK-MEL-28): > 10 µM (inactive)
- GI50 (MDA-N): > 10 µM (inactive)
- GI50 (SN12C): > 10 µM (inactive)
- GI50 (786-0): > 10 µM (inactive)
- GI50 (OVCAR-3): > 10 µM (inactive)
- GI50 (A549): > 10 µM (inactive)
- GI50 (SK-OV-3): > 10 µM (inactive)
- GI50 (HOP-92): > 10 µM (inactive)
- GI50 (ACHN): > 10 µM (inactive)
- GI50 (OVCAR-5): > 10 µM (inactive)
- GI50 (Hs-578T): > 10 µM (inactive)
- GI50 (NCI-H23): > 10 µM (inactive)
- GI50 (HCC 2998): > 10 µM (inactive)
- GI50 (EKVX): > 10 µM (inactive)
- GI50 (HT-29): > 10 µM (inactive)
- GI50 (UACC-257): > 10 µM (inactive)
- GI50 (M14): > 10 µM (inactive)
- GI50 (T47D): > 10 µM (inactive)
- GI50 (SF-295): > 10 µM (inactive)
- GI50 (SK-MEL-2): > 10 µM (inactive)
- GI50 (KM12): > 10 µM (inactive)
- GI50 (HCT-116): > 10 µM (inactive)
- GI50 (OVCAR-4): > 10 µM (inactive)
- GI50 (SNB-75): > 10 µM (inactive)
- GI50 (NCI-H460): > 10 µM (inactive)
- GI50 (NCI-H226): > 10 µM (inactive)
- GI50 (TK-10): > 10 µM (inactive)
- GI50 (CCRF-CEM): > 10 µM (inactive)

SMILES: O=C(O)CCc1ccc(-c2ccccc2)[nH]1
- GI50 (COLO 205): > 100 µM (inactive)
- GI50 (SF-268): > 100 µM (inactive)
- GI50 (MDA-MB-231): > 100 µM (inactive)
- GI50 (MCF7): > 100 µM (inactive)
- GI50 (HOP-62): > 100 µM (inactive)
- GI50 (MOLT-4): > 100 µM (inactive)
- GI50 (SR): > 100 µM (inactive)
- GI50 (SNB-19): > 100 µM (inactive)
- GI50 (RXF 393): > 100 µM (inactive)
- GI50 (U-251): > 100 µM (inactive)
- GI50 (SK-MEL-5): > 100 µM (inactive)
- GI50 (OVCAR-8): > 100 µM (inactive)
- GI50 (NCI/ADR-RES): > 100 µM (inactive)
- GI50 (SF-539): > 100 µM (inactive)
- GI50 (LOX IMVI): > 100 µM (inactive)
- GI50 (UACC-62): > 100 µM (inactive)
- GI50 (DU-145): > 100 µM (inactive)
- GI50 (RPMI-8226): > 100 µM (inactive)
- GI50 (A498): > 100 µM (inactive)
- GI50 (PC-3): > 100 µM (inactive)
- GI50 (HCT-15): > 100 µM
- GI50 (IGROV-1): > 100 µM (inactive)
- GI50 (HL-60): > 100 µM (inactive)
- GI50 (K562): > 100 µM (inactive)
- GI50 (CAKI-1): > 100 µM (inactive)
- GI50 (Malme-3M): > 100 µM (inactive)
- GI50 (BT-549): > 100 µM (inactive)
- GI50 (NCI-H522): > 100 µM (inactive)
- GI50 (MDA-MB-435): > 100 µM (inactive)
- GI50 (SW-620): > 100 µM (inactive)
- GI50 (SK-MEL-28): > 100 µM (inactive)
- GI50 (MDA-N): > 100 µM (inactive)
- GI50 (SN12C): > 100 µM (inactive)
- GI50 (786-0): > 100 µM (inactive)
- GI50 (OVCAR-3): > 100 µM (inactive)
- GI50 (A549): > 100 µM (inactive)
- GI50 (SK-OV-3): > 100 µM (inactive)
- GI50 (HOP-92): > 100 µM (inactive)
- GI50 (ACHN): > 100 µM (inactive)
- GI50 (OVCAR-5): > 100 µM (inactive)
- GI50 (Hs-578T): > 100 µM (inactive)
- GI50 (NCI-H23): > 100 µM (inactive)
- GI50 (HCC 2998): > 100 µM (inactive)
- GI50 (EKVX): > 100 µM (inactive)
- GI50 (UO-31): > 100 µM (inactive)
- GI50 (HT-29): > 100 µM (inactive)
- GI50 (UACC-257): > 100 µM (inactive)
- GI50 (M14): > 100 µM (inactive)
- GI50 (T47D): > 100 µM (inactive)
- GI50 (SF-295): > 100 µM (inactive)
- GI50 (SK-MEL-2): > 100 µM (inactive)
- GI50 (KM12): > 100 µM (inactive)
- GI50 (HCT-116): > 100 µM (inactive)
- GI50 (OVCAR-4): > 100 µM (inactive)
- GI50 (SNB-75): > 100 µM (inactive)
- GI50 (NCI-H460): > 100 µM (inactive)
- GI50 (NCI-H226): > 100 µM (inactive)
- GI50 (TK-10): > 100 µM (inactive)
- GI50 (CCRF-CEM): 70.6 µM (inactive)

Reference: ChEMBL document CHEMBL1201862, “PubChem BioAssay data set” (2004)
